Consider seven compounds from patent US20230017045A1, “PYRIDINE AND PYRIMIDINE CARBOXYLATE HERBICIDES AND METHODS OF USE THEREOF” (Dow AgroSciences LLC, priority 2017, published 2023).

The assay has as its system test plant species. Briefly: Post-emergent herbicidal activity test (greenhouse, foliar spray, visual growth reduction). The class given is in vivo. The following applies: post-emergence, 336 h, 140 g ai/ha. How it is done: Post-emergent Test: Seeds or nutlets of the desired test plant species were planted in Sun Gro Metro-Mix® 360 planting mixture, which typically has a pH of 6.0 to 6.8 and an organic matter content of about 30 percent, in plastic pots with a surface area of 64 square centimeters. In some aspects, to ensure good germination and healthy plants, a fungicide treatment and/or other chemical or physical treatment was applied. The plants were grown for 7-21 d in a greenhouse with an approximate 15 h photoperiod which was maintained at 23-29° C. during the day and 22-28° C. during the night. Nutrients and water were added on a regular basis and supplemental lighting was provided with overhead metal halide 1000-Watt lamps as necessary. Plants were used for testing when they reached the first or second true leaf stage. A weighed amount, determined by the highest rate to be tested, of each test compound was placed in a 25 mL glass vial and was dissolved in 4 mL of a 97:3 v/v mixture of acetone and DMSO to obtain concentrated stock solutions. […] The concentrated stock solutions obtained were diluted with 20 mL of an aqueous mixture containing acetone, water, isopropyl alcohol, DMSO, […] crop oil concentrate, and X-77 surfactant in a 48.5:39:10:1.5:1.0:0.02 v/v ratio to obtain spray solutions containing the application rate. Compound requirements are based upon a 12 mL application volume at a rate of 187 liters per hectare (L/ha). Formulated compounds were applied to the plant material with an overhead Mandel track sprayer equipped with […] nozzles calibrated to deliver 187 L/ha over an application area of 0.64 square meters at a spray height of 18 inches (43 cm) above the average plant canopy height. Control plants were sprayed in the same manner with the solvent blank. The treated plants and control plants were placed in a greenhouse as described above and watered by subirrigation to prevent wash-off of the test compounds. After 14 d, the condition of the test plants as compared with that of the nontreated and control plants was determined visually and scored on a scale of 0 to 100 percent where 0 corresponds to no injury and 100 corresponds to complete control. In the reporting of the results, Table A: Percent Growth Reduction Conversion Table was used.

[1] abbreviates: ALOMY: blackgrass (Alopecurus myosuroides), 14 days after application, read-out: Visual Growth Reduction (%) 14 Days After Application, ALOMY.
Setting [2] is: AMARE: redroot pigweed (Amaranthus retroflexus), 14 days after application, read-out: Visual Growth Reduction (%) 14 Days After Application, AMARE.
The mark [3] stands for this setting: AVEFA: wild oat (Avena fatua), 14 days after application, read-out: Visual Growth Reduction (%) 14 Days After Application, AVEFA.
Setting [4] is: CHEAL: lambsquarters (Chenopodium album), 14 days after application, read-out: Visual Growth Reduction (%) 14 Days After Application, CHEAL.
Where [5] appears, read: CIRAR: canada thistle (Cirsium arvense), 14 days after application, read-out: Visual Growth Reduction (%) 14 Days After Application, CIRAR.
Setting [6] is: CYPES: yellow nutsedge (Cyperus esculentus), 14 days after application, read-out: Visual Growth Reduction (%) 14 Days After Application, CYPES.
The mark [7] stands for this setting: DIGSA: crabgrass (Digitaria sanguinalis), 14 days after application, read-out: Visual Growth Reduction (%) 14 Days After Application, DIGSA.
Setting [8] is: barnyardgrass (Echinochloa crus-galli), 14 Days After Application, read-out: Visual Growth Reduction (%) ECHCG.
Setting [9] is: common chickweed (Stellaria media), 14 Days After Application, read-out: Visual Growth Reduction (%) STEME.
Where [10] appears, read: giant foxtail (Setaria faberi), 14 Days After Application, read-out: Visual Growth Reduction (%) SETFA.
[11] abbreviates: ivy-leaf morning glory (Ipomoea hederacea), 14 Days After Application, read-out: Visual Growth Reduction (%) IPOHE.
[12] abbreviates: johnsongrass (Sorghum vulgare), 14 Days After Application, read-out: Visual Growth Reduction (%) SORVU.
Setting [13] is: kochia (Bassia scoparia), 14 Days After Application, read-out: Visual Growth Reduction (%) KCHSC.
[14] abbreviates: rice (Oryza sativa), 14 Days After Application, read-out: Visual Growth Reduction (%) ORYSA.
Where [15] appears, read: wheat, spring (Triticum aestivum), 14 Days After Application, read-out: Visual Growth Reduction (%) TRZAS.

Like-named read-outs stand apart in the source and are kept apart here.

For `COC(=O)c1nc(-c2ccc(C(C)O)cc2Cl)ccc1Cl` (centres unmarked) [F1, methyl 3-chloro-6-(2-chloro-4-(1-hydroxyethyl)phenyl)picolinate], the pest or weed control at 140 g/ha by setting is: under setting [1], 0 to 29%; under setting [2], 0 to 29%; under setting [3], 0 to 29%; under setting [4], 0 to 29%; under setting [5], 0 to 29%; under setting [6], 45 to 59%. The pest or weed control at 140 g/ha runs as follows: under setting [7], 0 to 29%; under setting [8], 0 to 29%; under setting [9], 0 to 29%; under setting [10], 0 to 29%; under setting [11], 0 to 29%; under setting [12], 0 to 29%. Further, the pest or weed control at 140 g/ha was 0 to 29% under setting [13], 0 to 29% under setting [14] and 0 to 29% under setting [15].

`COC(=O)c1nc(-c2ccc(C(F)(F)F)cc2Cl)ccc1OC` [F2, Methyl 6-(2-chloro-4-4-(trifluoromethyl)phenyl)-3-methoxypicolinate]: the pest or weed control at 140 g/ha runs as follows: under setting [1], 0 to 29%; under setting [2], 60 to 74%; under setting [3], 0 to 29%; under setting [4], 0 to 29%; under setting [5], 0 to 29%; under setting [6], 0 to 29%. Further, the pest or weed control at 140 g/ha by setting is: under setting [7], 85 to 94%; under setting [8], 60 to 74%; under setting [9], 0 to 29%; under setting [10], 30 to 44%; under setting [11], 85 to 94%; under setting [12], 95 to 100%. In addition, the pest or weed control at 140 g/ha lay within 0 to 29% under setting [13], 0 to 29% under setting [14] and 45 to 59% under setting [15].

Regarding `COC(=O)c1nc(-c2ccc(C(F)(F)F)cc2Cl)c(C#N)cc1Cl` [F3, Methyl 3-chloro-6-(2-chloro-4-(trifluoromethyl)phenyl)-5-cyanopicolinate], the pest or weed control at 140 g/ha under setting [1] lay within 0 to 29%; the pest or weed control at 140 g/ha under setting [2] was in the range of 0 to 29%; the pest or weed control at 140 g/ha under setting [3] lay in the range of 0 to 29%; the pest or weed control at 140 g/ha under setting [4] lay within 75 to 84%; the pest or weed control at 140 g/ha under setting [5] is 0 to 29%; the pest or weed control at 140 g/ha under setting [6] is 0 to 29%. The pest or weed control at 140 g/ha under setting [7] lay in the range of 60 to 74%; the pest or weed control at 140 g/ha under setting [8] is 0 to 29%; the pest or weed control at 140 g/ha under setting [9] was 0 to 29%; the pest or weed control at 140 g/ha under setting [10] was in the range of 0 to 29%; the pest or weed control at 140 g/ha under setting [11] lay within 60 to 74%; the pest or weed control at 140 g/ha under setting [12] was in the range of 0 to 29%. The pest or weed control at 140 g/ha lay within 0 to 29% under setting [13], 0 to 29% under setting [14] and 0 to 29% under setting [15].

In the case of `C#Cc1cc(Cl)c(C(=O)OC)nc1-c1ccc(C(F)(F)F)cc1Cl` [F4, Methyl 3-chloro-6-(2-chloro-4-(trifluoromethyl)phenyl)-5-ethynylpicolinate], the pest or weed control at 140 g/ha lay in the range of 0 to 29% under setting [1]; 0 to 29% under setting [2]; 0 to 29% under setting [3]; 85 to 94% under setting [4]; 75 to 84% under setting [5]; 0 to 29% under setting [6]. Besides, the pest or weed control at 140 g/ha was in the range of 0 to 29% under setting [7]; 0 to 29% under setting [8]; 0 to 29% under setting [9]; 0 to 29% under setting [10]; 60 to 74% under setting [11]; 30 to 44% under setting [12]. In addition, the pest or weed control at 140 g/ha was in the range of 0 to 29% under setting [13], 0 to 29% under setting [14] and 0 to 29% under setting [15].

For the compound `COC(=O)c1nc(-c2ccc(C(F)(F)F)cc2Cl)c(C)cc1Cl` [F5], the pest or weed control at 140 g/ha was 0 to 29% under setting [1]; 0 to 29% under setting [2]; 0 to 29% under setting [3]; 45 to 59% under setting [4]; 0 to 29% under setting [5]; 30 to 44% under setting [6]. The pest or weed control at 140 g/ha under setting [7] lay within 0 to 29%; the pest or weed control at 140 g/ha under setting [8] lay in the range of 0 to 29%; the pest or weed control at 140 g/ha under setting [10] is 0 to 29%; the pest or weed control at 140 g/ha under setting [11] lay in the range of 30 to 44%; the pest or weed control at 140 g/ha under setting [12] lay in the range of 30 to 44%; the pest or weed control at 140 g/ha under setting [13] lay in the range of 30 to 44%. Besides, the pest or weed control at 140 g/ha under setting [14] is 0 to 29% and the pest or weed control at 140 g/ha under setting [15] lay in the range of 0 to 29%.

Take `COC(=O)c1nc(-c2ccc(C(F)(F)F)cc2Cl)c(I)cc1Cl` [F6, Methyl 3-chloro-6-(2-chloro-4-(trifluoromethyl)phenyl)-5-iodopicolinate]: the pest or weed control at 140 g/ha was in the range of 0 to 29% under setting [1]; 0 to 29% under setting [2]; 0 to 29% under setting [3]; 0 to 29% under setting [4]; 60 to 74% under setting [5]; 0 to 29% under setting [6]. For the same compound, the pest or weed control at 140 g/ha was 0 to 29% under setting [7]; 0 to 29% under setting [8]; 0 to 29% under setting [9]; 0 to 29% under setting [10]; 45 to 59% under setting [11]; 45 to 59% under setting [12]. Further, the pest or weed control at 140 g/ha runs as follows: under setting [13], 45 to 59%; under setting [14], 0 to 29%; under setting [15], 0 to 29%.

As to `COC(=O)c1nc(-c2ccc(C(F)(F)F)cc2Cl)c(SC)cc1Cl` [F7, methyl 3-chloro-6-(2-chloro-4-(trifluoromethyl)phenyl)-5-(methylthio)picolinate], the pest or weed control at 140 g/ha runs as follows: under setting [1], 0 to 29%; under setting [2], 0 to 29%; under setting [3], 0 to 29%; under setting [4], 0 to 29%; under setting [5], 0 to 29%; under setting [6], 0 to 29%. The pest or weed control at 140 g/ha reads like this: under setting [7], 0 to 29%; under setting [8], 0 to 29%; under setting [9], 0 to 29%; under setting [10], 0 to 29%; under setting [11], 0 to 29%; under setting [12], 0 to 29%. Further, the pest or weed control at 140 g/ha runs as follows: under setting [13], 0 to 29%; under setting [14], 0 to 29%; under setting [15], 0 to 29%.
